In US20240109917A1 (ACTELION PHARMACEUTICALS LTD, priority 2020, published 2024):
Where two headings read alike, the source gives them in different places.

Legend:
PDGFRβ = PDGFRβ (Rattus norvegicus (Rat), UniProt Q05030); test: PDGFRβ Cellular Assay (PDGFRb P-Y751 HTRF in A10 cells stimulated with PDGF-BB); format: cell-based
Outline: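 Phospho-Y751 PDGFRβ was measured by HTRF in lysates of A10 rat cells. Cells received compound for 3 hours before PDGF-BB stimulation (100 ng/mL working stock).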

[1] = target: Tb-labeled inactive PDGFRβ (Homo sapiens (Human), UniProt P09619); test: PDGFRβ LanthaScreen Assay; format: binding; conditions: read-out: PDGFR Lantha IC50
[2] = target: His6-TEV-PDGFRβ (557-1016) (Homo sapiens (Human), UniProt P09619); test: PDGFRβ HTRF Assay; format: biochemical; conditions: read-out: PDGFR HTRF IC50
Outline: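 HTRF KinEASE-TK readout (665/620 nm ratio) of TK-biotin substrate phosphorylation by His-tagged PDGFRβ kinase domain. Enzyme and inhibitor preincubated 30 min, then ATP/substrate added for 3 h at room temperature before 60 min EDTA quench/detection.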

Chain of Tb-labeled inactive PDGFRβ (P09619 33-1106): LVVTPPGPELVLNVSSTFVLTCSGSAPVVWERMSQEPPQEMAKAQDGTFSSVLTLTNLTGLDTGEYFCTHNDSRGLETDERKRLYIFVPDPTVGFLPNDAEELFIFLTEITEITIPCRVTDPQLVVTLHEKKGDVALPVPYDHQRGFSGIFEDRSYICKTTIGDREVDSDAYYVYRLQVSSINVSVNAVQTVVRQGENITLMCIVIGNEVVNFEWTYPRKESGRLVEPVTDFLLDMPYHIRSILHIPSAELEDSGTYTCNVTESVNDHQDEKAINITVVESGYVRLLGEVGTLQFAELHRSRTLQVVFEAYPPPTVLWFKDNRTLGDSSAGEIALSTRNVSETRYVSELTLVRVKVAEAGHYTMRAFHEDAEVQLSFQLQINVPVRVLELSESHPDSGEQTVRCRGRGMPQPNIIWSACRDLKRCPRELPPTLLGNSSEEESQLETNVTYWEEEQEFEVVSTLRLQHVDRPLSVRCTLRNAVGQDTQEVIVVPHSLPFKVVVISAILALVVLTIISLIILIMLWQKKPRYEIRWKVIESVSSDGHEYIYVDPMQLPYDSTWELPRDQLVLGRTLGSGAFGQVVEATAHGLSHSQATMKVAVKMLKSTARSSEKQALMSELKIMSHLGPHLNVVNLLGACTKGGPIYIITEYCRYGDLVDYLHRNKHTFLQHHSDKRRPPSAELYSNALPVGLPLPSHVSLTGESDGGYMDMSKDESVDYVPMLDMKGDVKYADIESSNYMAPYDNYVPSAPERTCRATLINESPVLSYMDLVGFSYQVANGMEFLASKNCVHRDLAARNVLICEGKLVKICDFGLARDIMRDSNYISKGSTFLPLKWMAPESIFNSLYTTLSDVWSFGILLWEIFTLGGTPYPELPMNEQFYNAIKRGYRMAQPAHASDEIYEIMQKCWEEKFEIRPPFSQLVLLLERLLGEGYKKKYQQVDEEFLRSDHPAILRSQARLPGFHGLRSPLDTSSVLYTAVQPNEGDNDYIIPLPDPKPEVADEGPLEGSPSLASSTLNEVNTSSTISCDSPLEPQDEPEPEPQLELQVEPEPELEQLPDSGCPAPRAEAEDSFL
Chain of PDGFRβ (Q05030 32-1097): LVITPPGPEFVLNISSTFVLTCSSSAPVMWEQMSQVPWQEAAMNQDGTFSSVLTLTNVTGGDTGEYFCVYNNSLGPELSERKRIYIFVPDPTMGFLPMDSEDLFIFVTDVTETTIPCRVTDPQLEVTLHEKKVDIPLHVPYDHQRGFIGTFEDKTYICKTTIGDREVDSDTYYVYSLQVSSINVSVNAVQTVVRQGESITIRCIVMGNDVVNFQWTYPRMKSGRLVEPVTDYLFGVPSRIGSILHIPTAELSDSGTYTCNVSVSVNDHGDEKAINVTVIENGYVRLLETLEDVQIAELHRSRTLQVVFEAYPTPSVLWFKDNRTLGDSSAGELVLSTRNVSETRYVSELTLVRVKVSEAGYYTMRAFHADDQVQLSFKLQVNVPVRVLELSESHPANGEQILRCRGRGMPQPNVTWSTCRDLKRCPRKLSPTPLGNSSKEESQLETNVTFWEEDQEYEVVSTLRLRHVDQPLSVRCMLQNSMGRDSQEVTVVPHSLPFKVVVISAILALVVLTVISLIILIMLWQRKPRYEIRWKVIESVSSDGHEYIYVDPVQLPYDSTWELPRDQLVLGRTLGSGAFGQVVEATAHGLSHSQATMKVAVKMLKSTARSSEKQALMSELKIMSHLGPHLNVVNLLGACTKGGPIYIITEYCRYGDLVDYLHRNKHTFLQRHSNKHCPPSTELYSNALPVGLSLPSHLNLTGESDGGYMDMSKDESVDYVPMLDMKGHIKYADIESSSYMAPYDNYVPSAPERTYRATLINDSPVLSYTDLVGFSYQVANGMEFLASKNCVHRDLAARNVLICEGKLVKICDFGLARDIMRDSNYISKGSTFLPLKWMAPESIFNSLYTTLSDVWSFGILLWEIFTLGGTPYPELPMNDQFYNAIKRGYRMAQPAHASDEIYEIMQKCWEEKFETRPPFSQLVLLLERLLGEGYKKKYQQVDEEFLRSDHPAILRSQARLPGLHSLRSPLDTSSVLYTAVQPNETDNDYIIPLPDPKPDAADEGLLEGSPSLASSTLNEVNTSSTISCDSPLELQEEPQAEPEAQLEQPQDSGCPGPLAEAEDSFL
Chain of His6-TEV-PDGFRβ (557-1016) (P09619 557-1016): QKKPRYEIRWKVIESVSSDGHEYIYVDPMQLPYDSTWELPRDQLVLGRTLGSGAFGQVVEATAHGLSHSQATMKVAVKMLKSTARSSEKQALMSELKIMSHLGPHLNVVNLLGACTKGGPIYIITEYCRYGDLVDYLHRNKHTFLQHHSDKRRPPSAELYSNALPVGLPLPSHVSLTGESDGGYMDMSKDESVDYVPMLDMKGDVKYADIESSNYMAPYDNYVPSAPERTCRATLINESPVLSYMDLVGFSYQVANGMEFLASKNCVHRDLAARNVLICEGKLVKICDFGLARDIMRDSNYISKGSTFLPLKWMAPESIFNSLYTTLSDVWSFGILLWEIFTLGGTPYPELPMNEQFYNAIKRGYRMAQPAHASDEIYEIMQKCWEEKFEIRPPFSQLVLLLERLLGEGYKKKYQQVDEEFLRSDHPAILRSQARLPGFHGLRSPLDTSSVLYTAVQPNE

SMILES | IC50 (PDGFRβ; read-out: PDGFR Cellular IC50) | IC50 [1] | IC50 [2] | IC50 (PDGFRβ; PDGFR Cellular IC50)
Cc1ncc(NC(=O)CN2[C@H](C)COC[C@H]2C)cc1NC(=O)c1cnn2cc(-c3cnn(C)c3)sc12 [Example 51, N-(5-(2-((3R,5R)-3,5-dimethylmorpholino)acetamido)-2-methylpyridin-3-yl)-2-(1-methyl-1H-pyrazol-4-yl)pyrazolo[5,1-b]thiazole-7-carboxamide] | 6.8 nM | 4.8 nM | 0.4 nM | 
Cc1ncc(NC(=O)CN2CCn3ccnc3C2)cc1NC(=O)c1cnn2cc(-c3cnn(C)c3)sc12 [Example 75, N-(5-(2-(5,6-dihydroimidazo[1,2-a]pyrazin-7 (8H)-yl)acetamido)-2-methylpyridin-3-yl)-2-(1-methyl-1H-pyrazol-4-yl)pyrazolo[5,1-b]thiazole-7-carboxamide] | 2750 nM | 47 nM | 4.1 nM | 
COC1CCN(CC(=O)Nc2cnc(C)c(NC(=O)c3cnn4cc(-c5cnn(C)c5)sc34)c2)CC1 [Example 83, N-(5-(2-(4-methoxypiperidin-1-yl)acetamido)-2-methylpyridin-3-yl)-2-(1-methyl-1H-pyrazol-4-yl)pyrazolo[5,1-b]thiazole-7-carboxamide] | 44.1 nM | 35 nM | 2.3 nM | 
COCCn1cc(-c2cn3ncc(C(=O)Nc4cc(NC(=O)C5(CN6CCCC6(C)C)CC5)cnc4C)c3s2)cn1 [Example 487, N-(5-(1-((2,2-dimethylpyrrolidin-1-yl)methyl)cyclopropane-carboxamido)-2-methylpyridin-3-yl)-2-(1-(2-methoxyethyl)-1H-pyrazol-4-yl)pyrazolo[5,1-b]thiazole-7-carboxamide] | 42.6 nM | 197 nM | 7.7 nM | 
Cc1ncc(NC(=O)CN2CCOCC2)cc1NC(=O)c1cnn2cc(-c3cnn(C)c3)sc12 [Example 55, 2-(1-methyl-1H-pyrazol-4-yl)-N-(2-methyl-5-(2-morpholinoacetamido)pyridin-3-yl)pyrazolo[5,1-b]thiazole-7-carboxamide] | 87.1 nM | 40.6 nM | 1.5 nM | 
Cc1ncc(NC(=O)CNCC(C)C)cc1NC(=O)c1cnn2cc(-c3cnn4c3CCC4)sc12 [Example 493, 2-(5,6-dihydro-4H-pyrrolo[1,2-b]pyrazol-3-yl)-N-(5-(2-(isobutylamino)acetamido)-2-methylpyridin-3-yl)pyrazolo[5,1-b]thiazole-7-carboxamide] | 7 nM | 1.9 nM | 0.2 nM | 
Cc1ncc(NC(=O)CN2CCCC(F)(F)C2)cc1NC(=O)c1cnn2cc(-c3cnn(C)c3)sc12 [Example 49, N-(5-(2-(3,3-difluoropiperidin-1-yl)acetamido)-2-methylpyridin-3-yl)-2-(1-methyl-1H-pyrazol-4-yl)pyrazolo[5,1-b]thiazole-7-carboxamide] | 4.7 nM | 2.1 nM | 0.4 nM | 
Cc1ncc(NC(=O)CN2CCO[C@H](C)C2)cc1NC(=O)c1cnn2cc(-c3cnn(C)c3)sc12 [Example 54, (R)-2-(1-methyl-1H-pyrazol-4-yl)-N-(2-methyl-5-(2-(2-methylmorpholino)acetamido)pyridin-3-yl)pyrazolo[5,1-b]thiazole-7-carboxamide] | 11.4 nM | 12.8 nM | 0.5 nM | 
Cc1ncc(NC(=O)CN2C[C@@H](C)O[C@@H](C)C2)cc1NC(=O)c1cnn2cc(-c3cnn(C)c3)sc12 [Example 53, N-(5-(2-((2R,6S)-2,6-dimethylmorpholino)acetamido)-2-methylpyridin-3-yl)-2-(1-methyl-1H-pyrazol-4-yl)pyrazolo[5,1-b]thiazole-7-carboxamide] | 4.3 nM | 2.7 nM | 0.3 nM | 
COCCn1cc(-c2cn3ncc(C(=O)Nc4cc(NC(=O)C[C@H]5CCN(C(C)C)C5)cnc4C)c3s2)cn1 [Example 486, (R)—N-(5-(2-(1-isopropylpyrrolidin-3-yl)acetamido)-2-methylpyridin-3-yl)-2-(1-(2-methoxyethyl)-1H-pyrazol-4-yl)pyrazolo[5,1-b]thiazole-7-carboxamide] | 2000 nM | 127 nM | 2.6 nM | 
Cc1ncc(NC(=O)CN2CCC(F)(F)C2)cc1NC(=O)c1cnn2cc(-c3cnn(C)c3)sc12 [Example 73, N-(5-(2-(3,3-difluoropyrrolidin-1-yl)acetamido)-2-methylpyridin-3-yl)-2-(1-methyl-1H-pyrazol-4-yl)pyrazolo[5,1-b]thiazole-7-carboxamide] | 3.2 nM | 1.7 nM | 0.3 nM | 
Cc1ncc(NC(=O)CN2[C@H](C)COC[C@@H]2C)cc1NC(=O)c1cnn2cc(-c3cnn(C)c3)sc12 [Example 71, N-(5-(2-((3S,5R)-3,5-dimethylmorpholino)acetamido)-2-methylpyridin-3-yl)-2-(1-methyl-1H-pyrazol-4-yl)pyrazolo[5,1-b]thiazole-7-carboxamide] | 90.9 nM | 47.9 nM | 2.9 nM | 
COCCn1cc(-c2cn3ncc(C(=O)Nc4cc(NC(=O)CCN5C[C@@H]6CC[C@H]5C6)cnc4C)c3s2)cn1 [Example 92, N-(5-(3-((1S,4R)-2-azabicyclo[2.2.1]heptan-2-yl)propanamido)-2-methylpyridin-3-yl)-2-(1-(2-methoxyethyl)-1H-pyrazol-4-yl)pyrazolo[5,1-b]thiazole-7-carboxamide] | 122 nM | 7.2 nM | 0.5 nM | 
Cc1ncc(NC(=O)CN2CCS(=O)(=O)CC2)cc1NC(=O)c1cnn2cc(-c3cnn(C)c3)sc12 [Example 59, N-(5-(2-(1,1-dioxidothiomorpholino)acetamido)-2-methylpyridin-3-yl)-2-(1-methyl-1H-pyrazol-4-yl)pyrazolo[5,1-b]thiazole-7-carboxamide] | > 3000 nM | 93.9 nM | 2.1 nM | 
Cc1ncc(NC(=O)CN2CCCC23CC3)cc1NC(=O)c1cnn2cc(-c3cnn(CCO)c3)sc12 [Example 87, N-(5-(2-(4-azaspiro[2.4]heptan-4-yl)acetamido)-2-methylpyridin-3-yl)-2-(1-(2-hydroxyethyl)-1H-pyrazol-4-yl)pyrazolo[5,1-b]thiazole-7-carboxamide] | 1 nM | 3.2 nM | 0.4 nM | 
CC[C@H]1CN(CC(=O)Nc2cnc(C)c(NC(=O)c3cnn4cc(-c5cnn(C)c5)sc34)c2)CCO1 [Example 66, (S)—N-(5-(2-(2-ethylmorpholino)acetamido)-2-methylpyridin-3-yl)-2-(1-methyl-1H-pyrazol-4-yl)pyrazolo[5,1-b]thiazole-7-carboxamide] | 4.6 nM | 2.6 nM | 0.3 nM | 
COCCn1cc(-c2cn3ncc(C(=O)Nc4cc(NC(=O)CCN5CCC6(CCC6)C5)cnc4C)c3s2)cn1 [Example 90, N-(5-(3-(6-azaspiro[3.4]octan-6-yl)propanamido)-2-methylpyridin-3-yl)-2-(1-(2-methoxyethyl)-1H-pyrazol-4-yl)pyrazolo[5,1-b]thiazole-7-carboxamide] | 19.9 nM | 10.6 nM | 0.5 nM | 
Cc1ncc(NC(=O)CN2CCC[C@@H]2C)cc1NC(=O)c1cnn2cc(-c3cnn(CCO)c3)sc12 [Example 84, (S)-2-(1-(2-hydroxyethyl)-1H-pyrazol-4-yl)-N-(2-methyl-5-(2-(2-methylpyrrolidin-1-yl)acetamido)pyridin-3-yl)pyrazolo[5,1-b]thiazole-7-carboxamide] | 40.2 nM | 10.9 nM | 0.9 nM | 
Cc1ncc(NC(=O)CN2CCc3c(cnn3C)C2)cc1NC(=O)c1cnn2cc(-c3cnn(C)c3)sc12 [Example 57, 2-(1-methyl-1H-pyrazol-4-yl)-N-(2-methyl-5-(2-(1-methyl-6,7-dihydro-1H-pyrazolo[4,3-c]pyridin-5 (4H)-yl)acetamido)pyridin-3-yl)pyrazolo[5,1-b]thiazole-7-carboxamide] | 124 nM | 10.8 nM | 1 nM | 
Cc1ncc(NC(=O)CN2CCOC[C@@H]2C)cc1NC(=O)c1cnn2cc(-c3cnn(C)c3)sc12 [Example 74, (S)-2-(1-methyl-1H-pyrazol-4-yl)-N-(2-methyl-5-(2-(3-methylmorpholino)acetamido)pyridin-3-yl)pyrazolo[5,1-b]thiazole-7-carboxamide] |  | 24.2 nM | 1 nM | 41.6 nM
Cc1ncc(NC(=O)CN2CCOCC2(C)C)cc1NC(=O)c1cnn2cc(-c3cnn(C)c3)sc12 [Example 68, N-(5-(2-(3,3-dimethylmorpholino)acetamido)-2-methylpyridin-3-yl)-2-(1-methyl-1H-pyrazol-4-yl)pyrazolo[5,1-b]thiazole-7-carboxamide] | 19.1 nM | 8.1 nM | 0.8 nM | 
COCCn1cc(-c2cn3ncc(C(=O)Nc4cc(NC(=O)CCN5CCC(C)(C)C5)cnc4C)c3s2)cn1 [Example 89, N-(5-(3-(3,3-dimethylpyrrolidin-1-yl)propanamido)-2-methylpyridin-3-yl)-2-(1-(2-methoxyethyl)-1H-pyrazol-4-yl)pyrazolo[5,1-b]thiazole-7-carboxamide] | 26.2 nM | 12.7 nM | 0.6 nM | 
